Laboratory results as given in patent US11672786B2, “Methods of treating diseases associated with repeat instability” (The Hospital for Sick Children, priority 2016, dated 2023).
Several values for one entry are separate records, joined by “and”; a condition that tells them apart may be missing. Identical values can stand only once.

Tested on: HT1080-(CAG)850 contact inhibition
Test: small-pool PCR repeat instability, non-proliferating HT1080-(CAG)850 cells under contact inhibition
Assay type: cell-based, human
Details: 50 uM NA, 30 days
Experimental: The construction of the HT1080-(CAG)850 cell model was described previously (Sathasivam et al., 1997, Hum. Genet., 99:692-5). Briefly, HT1080 (ATCC) human fibrosarcoma cells were co-transfected with a plasmid (LC15-R) containing 800-850 (CTG)●(CAG) repeats (Nakatani et al., 2005, Nat. Chem. Biol., 1:39-43) and a plasmid encoding PhiC31 integrase. Transfection was performed with a Nucleofector (Lonza, Basel, Switzerland), and stably transfected clones were selected with puromycin. […] The HT1080-non-transcribing (CAG)850 cell model was established by transfecting a plasmid modified from pLC16 by inserting an additional SV40 polyadenylation signal downstream of the repeats (in addition to the original polyadenylation signals located upstream of the repeats), so that CAG/CTG repeats are floxed by transcription-terminator elements. The AttB-PhiC31 system has been widely used for single copy integration. […] The HT1080 model cells and an HD primary fibroblast cell line, GM09197 (Coriell Biorepository) with a large expanded allele of 180 CAG repeats and a non-expanded allele of 23 repeats (Sathasivam et al., 1997, Hum. Genet., 99:[…]), the HD primary fibroblast cell line, GM02191 (Coreill Biorepository) with an expanded allele of 43 CAG repeats and a non-expanded allele of 19 repeats, were cultured at 37° C. with 5% CO2 in Dulbecco's modified Eagle's medium supplemented with 10% fetal bovine serum and 1% penicillin/streptomycin. Cells were treated with or without continuous exposure to 50-μM NA for 30 days (HT1080 cells) or for 40 days (fibroblast cells). For experiments on non-proliferating cells, HT1080 cells were grown to confluence and then treated for the same period. WST-1 assay was performed according to the manufacturer's instructions (Roche, Basel, Switzerland). All cell lines were tested to be free of Mycoplasma. Three biological replicates were performed for each experiment.
Proliferation was inhibited by growth under contact inhibition and serum starvation, as previously performed. Degree of arrest from proliferation was assessed in living cells by counting BrdU positive cells after 24 hrs incubation with BrdU in proliferating or contact-inhibited (and serum starved) HT1080-(CAG)850 cells. The percentage of BrdU positive cells was 92.6% in proliferating cells and 8.17% in contact-inhibited cells. Although a small portion of HT1080-(CAG)850 cells were still proliferating even under contact-inhibition and serum starvation, the ratio is very small. Based on a calculation how many cells derive from a single cell after 30 days (the period that was studied) (proliferating, 1.926^30=348653546.6; contact inhibition, 1.0817^30=10.55), the effect of proliferation in contact-inhibited cells can be ignored.
Genomic DNA was extracted from HT1080-(CAG)850 clones and HD primary fibroblasts using the Gentra Puregene Cell Kit (Qiagen, Valencia, Calif.). The expanded (CTG)●(CAG) repeats were sized by small-pool PCR (sp-PCR) followed by Southern blot as described previously (Sathasivam et al., 1997, Hum. Genet., 99:692-5). For HT1080 models, small-pool PCR (spPCR) was performed with the input of 1.4-1.7 genome equivalents. The repeat size difference in the models is, at most, 3000 base-pairs, therefore, being strictly conservative, a bias toward amplifying the shorter allele can be possible, even under optimized PCR conditions described herein. For HD primary fibroblasts, sp-PCR & Southern blots were performed as described previously with slight modifications (Tome et al., 2013, PLoS Genet., 9:e1003280). Briefly, the PCR primers listed in Table 1 were used, and blots were hybridized with a DIG-labeled (CAG)7 locked nucleic acid probe (Nakamori et al. 2009, Neuromuscul. Disord., 19:759-62).

[1] = single experiments Ex 1-3, cut-off ±25 repeats

Question: For naphthyridine-azaquinolone, which “% Contraction” value (Total) is on record?
Answer: 53.3%

Question: And the “% Expansion” value (Total)?
Answer: 16.6%

Question: And the “% Unchanged” value (Total)?
Answer: 30.2%

Question: And the “Average Change of Repeat Size” value (Total)?
Answer: −90.9 number of repeats

Question: What about the “% Unchanged” value (single experiments Ex 1-3) of the same substance?
Answer: 34.9% and 25.0% and 30.0%

Question: And the “% Contraction” value [1]?
Answer: 49.2% and 57.1% and 54.0%

Question: What about the “% Expansion” value [1] of the same substance?
Answer: 15.9% and 17.9% and 16.0%
